Results from patent US20250262223A1, “METHODS FOR THE TREATMENT OF BIOLOGICAL AGING” (BIOVIE INC., priority 2022, published 2025).

Tests used:
[1] = test system: p-IKK beta, p-ERK, p-P38 and p-JNK (Tau phosphorylation); assay: in vitro samples: activation of inflammatory kinases and p-Tau; assay type: cell-based
From the text: Without wishing to be bound by theory, it is believed that 17α-ethynylandrost-5-ene-3β,7β,17β-triol binds to ERK 1 and ERK 2, which decreases inflammatory activation of p-IKK beta, p-JNK, p-ERK and p-P38, thereby decreasing serine IRS1 phosphorylation, restoring tyrosine IRS1 phosphorylation and insulin sensitivity.

CpGs (DNA methylation) = assay: Illumina 850K array DNA methylation changes following 14 weeks of bezisterim treatment; assay type: in vivo, human; conditions: for decrease in DNAm: 14 weeks
Description: In this study, 23 mild cognitive impaired (“MCI”) and Alzheimer's disease (“AD”) subjects were enrolled based on Clinical Dementia Rating (“CDR”) from their Quick Dementia Rating System (“QDRS”) scale. Advanced MRI imaging (ASL, BOLD, MRS, task-based fMRI) was also performed as well as cognition and memory tests were performed (Cog12, MM SE, QDRS, MoCA). Biomarkers of the subjects were also taken (csf p-Tau, A beta, and plasma TNF) and episome analyses were performed. Finally, a biological clock analysis was performed (DNA methylation profiling).
Illumina® 850K array DNA methylation changes following 14 weeks of bezisterim treatment were sorted and the top 400 decreased CpGs (decreases >50%) were explored for correlations with changes in clinical results following treatment. Of these, 366 have CpG gene identifications.

[2] = Phase 3 trial, metabolic changes and correlations; assay type: in vivo, human
Description: Subjects metabolic and correlation changes were analyzed. Many of the genes associated with LOAD (late onset Alzheimer's disease) are related to cholesterol metabolism, which is decreased in AD neuron membranes. Insulin and glycemic controls are known to be involved in neurodegeneration. […] Increased mean amplitude of glycemic excursion (MAGE from CGM) increased risk of Alzheimer's disease progression. Leptin is an anti-inflammatory, neuroprotective and is decreased in AD. […] The results are described in Tables 4 and 5.
FIGS. 17A-17C illustrates graphs representing increased fasting insulin and HOMA2-% B with decreased HOMA2-% S w/o hypoglycemia. Table 10 provides additional information regarding the fasting insulin and HOMA2-% B with decreased HOMA2-% S w/o hypoglycemia.

[3] = Phase 3 imaging sub-study vMRI; assay type: in vivo, human; conditions: 23 subjects; blinded Phase 3 data, NE3107 and placebo pooled
Description: Subjects were analyzed using imaging sub-studies vMRI on 23 subjects. It was observed that the volume was increased in the hippocampus and amygdala. In addition, it was observed a decreased CGIC was correlated with decreased hippocampi volume and increased MCP-1 was correlated with increased whole cortex. The results are described in FIGS. 14A-14B and Table 6.

[4] = Phase 3 imaging sub-study FDG-PET; assay type: in vivo, human; conditions: subjects with a baseline whole cortex suvr <1.29; blinded Phase 3 data, NE3107 and placebo pooled
Description: Subjects were analyzed using a fluorodeoxyglucose (FDG)-positron emission tomography (PET) imaging scans. FDG-PET standardized uptake value ratios (“suvr”) were increased in 14/24 subjects with a baseline whole cortex suvr <1.29. […] Cholesterol increases trended with increased Cingulate suvr. The results are described in Table 7 and FIG. 15.

[5] = Phase 3 neuropsychiatric inventory; assay type: in vivo, human; conditions: blinded Phase 3 data, NE3107 and placebo pooled
Description: Subjects were analyzed for neuropsychiatric inventory. […] An improvement in appetite was also correlated with decreased Cog12, CDR SB and ADCOMS, with increased Alzheimer's disease. A decrease in anxiety was correlated with an increase ADL and decreased CGIC. Sleep improvement was correlated with a decrease in CGIC and decreased in TNFα. The results are described in Table 8 and FIGS. 16A-16B.

Phase 3 adverse effects = assay type: in vivo
[6] = test system: extracellular signal-regulated kinase; conditions: cited from earlier work
[7] = test system: ERK- and NF-κB-stimulated inflammatory mediators, including TNF-α; conditions: without inhibiting their homeostatic functions; cited from earlier work
[8] = cited from earlier work
[9] = P < 0.0001, blinded Phase 3 data, NE3107 and placebo pooled
[10] = blinded Phase 3 data, NE3107 and placebo pooled

Structure (SMILES): C#C[C@]1(O)CC[C@H]2[C@@H]3[C@@H](O)C=C4C[C@@H](O)CC[C@]4(C)[C@H]3CC[C@@]21C [NE3107, 17α-ethynylandrost-5-ene-3β,7β,17β-triol]
- Akt inhibition of GSK 3beta [1]: increased Akt inhibition of GSK 3beta
- activation of inflammatory p-IKK beta, p-ERK, p-P38 and p-JNK ([1]; in vitro samples): decreased activation
- p-Tau ([1]; in vitro samples): decreased p-Tau
- DNA methylation decrease of the top 400 decreased CpGs (CpGs (DNA methylation); 14 weeks of treatment): > 50%
- decrease in DNAm (CpGs (DNA methylation); HLA-L): 56%
- decrease in DNAm (CpGs (DNA methylation); KCNQ1DN): 51%
- decrease in DNAm (CpGs (DNA methylation); SLC26A1): 55%
- Hypoglycemia ([2]; Increased Fasting Insulin: No, blinded Phase 3 data): 2
- Hypoglycemia ([2]; Increased Fasting Insulin: Yes, blinded Phase 3 data): 0
- HOMA2-% B, Change from Baseline [2, 9]: +13.5%, *
- HOMA2-% S, Change from Baseline [2, 9]: −21.2%, *
- Insulin, Change from Baseline [2, 9]: +1.9 μlU/mL,*
- Cholesterol, Change from Baseline [2, 10]: +3.0 mg/dL
- Leptin, V10 median [2, 10]: 29.2 ng/mL
- Leptin DNAm ([2]; in vivo): increase
- MAGE, Change from Baseline ([2]; mean amplitude of glycemic excursion from CGM, blinded Phase 3 data, NE3107 and placebo pooled): -0.57 mg/dL
- Hypoglycemia ([2]; with increased insulin and HOMA2-% B and decreased HOMA2% insulin sensitivity, blinded Phase 3 data): no cases of hypoglycemia
- vMRI amygdala volume [3]: increased
- vMRI hippocampus volume [3]: increased
- subjects with increased FDG-PET standardized uptake value ratios (suvr) [4]: 14/24
- neuropsychiatric inventory, overall improvement in sleep ([5]; p<0.0001): −1.0
- neuropsychiatric inventory, overall improvement in appetite ([5]; p<0.023): −1.0
- subjects discontinued due to a reported AE (Phase 3 adverse effects; 10 subjects of 439 enrolled, blinded, NE3107 and placebo pooled): 2.3%
- serious AEs (Phase 3 adverse effects; 12, blinded, NE3107 and placebo pooled): 2.7%
- related AEs (Phase 3 adverse effects; 43, blinded, NE3107 and placebo pooled): 9.8%
- subjects who experienced 1 or more AEs (Phase 3 adverse effects; 156 of 439 subjects, blinded, NE3107 and placebo pooled): 35.5%
- serious AEs that resulted in death (Phase 3 adverse effects; count, not known whether on IP or placebo): 1
- binding to extracellular signal-regulated kinase [6]: binds
- inhibition of inflammation-driven ERK- and NF-κB-stimulated inflammatory mediators, including TNF-α [7]: selectively inhibit
- blood-brain permeability [8]: blood-brain permeable
